Data taken from publication PMC7438494 (Communications Biology, 2020).
Several values for one entry are separate records, joined by “and”; a condition that tells them apart may be missing. Identical values can stand only once. Like-named read-outs stand apart in the source and are kept apart here.

Legend:
[1] = test system: human mitoplasts; experiment: Membrane potential of human mitoplasts, fluorescence quenching of Rhodamine 123; type: biochemical; conditions: high concentrations
Experimental: The membrane potential was assessed by measuring fluorescence quenching of Rhodamine 123 at 488 nm excitation and 525 nm emission in a buffer containing 0.65 M mannitol, 20 mM bis-tris-propane, 2 mM tris-phosphate, 0.3 mM EGTA, pH 6.8 with Rhodamine 123 dissolved in methanol (1.0 µM). Yeast mitochondria were energized with ethanol (0.4% v/v), whereas human mitochondria were energized with glutamate/malate (5 mM/2.5 mM).

[2] = patients treated with Sirturo; placebo 2.5%; cited from earlier work
[3] = molecular target: yeast mitochondrial ATP synthase (Saccharomyces cerevisiae, UniProt P00854+P61829); experiment: biochemical; conditions: for inhibition at 1 µM: read-out: % inhibition; for activity at 6 µM / inhibition at 6 µM: Bedaquiline 6 μM
[4] = molecular target: luciferase (Photinus pyralis, UniProt P08659); type: biochemical
Chain of luciferase (P08659 whole entry): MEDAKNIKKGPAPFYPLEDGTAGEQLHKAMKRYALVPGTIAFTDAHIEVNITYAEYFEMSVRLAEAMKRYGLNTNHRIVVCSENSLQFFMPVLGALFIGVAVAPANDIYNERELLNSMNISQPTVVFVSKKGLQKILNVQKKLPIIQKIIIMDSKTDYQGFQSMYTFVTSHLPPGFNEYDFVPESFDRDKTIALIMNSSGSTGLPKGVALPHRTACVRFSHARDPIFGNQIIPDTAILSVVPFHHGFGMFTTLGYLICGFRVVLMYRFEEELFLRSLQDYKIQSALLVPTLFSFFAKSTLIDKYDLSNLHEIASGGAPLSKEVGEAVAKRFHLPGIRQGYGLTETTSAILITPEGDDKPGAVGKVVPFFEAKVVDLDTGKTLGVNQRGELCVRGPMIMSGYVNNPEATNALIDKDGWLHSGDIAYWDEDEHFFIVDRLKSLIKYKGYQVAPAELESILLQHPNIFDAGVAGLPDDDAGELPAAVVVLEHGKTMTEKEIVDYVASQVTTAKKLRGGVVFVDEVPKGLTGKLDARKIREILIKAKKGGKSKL

[5] = test system: human mitochondrial ATP synthase; conditions: reviewer's remark; ref previous reports; read-out: IC50, ATPase activity of human mitochondrial ATP synthase; cited from earlier work
[6] = test system: hERG channel; conditions: read-out: IC50 for hERG; cited from earlier work
[7] = molecular target: yeast F1Fo ATP synthase (Saccharomyces cerevisiae, UniProt P00854+P61829); experiment: Single-particle cryo-EM of yeast F1Fo in nanodiscs with BDQ; type: binding
[8] = test system: MCF7 breast cancer cells; conditions: read-out: IC50, mitochondrial oxygen consumption / cell growth; cited from earlier work
[9] = molecular target: yeast mitochondrial ATP synthase (yeast SMP) (Saccharomyces cerevisiae, UniProt P00854+P61829); experiment: biochemical; conditions: for ATP hydrolysis activity, Exp 1-3: SMP data
[10] = 1st exp (1-11-19), Bedaquiline 0.05 μM, frozen yeast mito, 60 min
[11] = 1st exp (1-11-19), Bedaquiline 0.1 μM, frozen yeast mito, 60 min
[12] = 1st exp (1-11-19), Bedaquiline 0.5 μM, frozen yeast mito, 60 min
[13] = 1st exp (1-11-19), Bedaquiline 1 μM, frozen yeast mito, 60 min
[14] = 1st exp (1-11-19), Bedaquiline 1.4 μM, frozen yeast mito, 60 min
[15] = 1st exp (1-11-19), Bedaquiline 2 μM, frozen yeast mito, 60 min
[16] = 1st exp (1-11-19), Bedaquiline 3 μM, frozen yeast mito, 60 min
[17] = 1st exp (1-11-19), Bedaquiline 4 μM, frozen yeast mito, 60 min
[18] = 1st exp (1-11-19), frozen yeast mito, 60 min
[19] = 2nd exp (1-29-19), Bedaquiline 0.005 μM (duplicate), frozen yeast mito, 60 min
[20] = 2nd exp (1-29-19), Bedaquiline 0.05 μM, frozen yeast mito, 60 min
[21] = 2nd exp (1-29-19), Bedaquiline 0.1 μM, frozen yeast mito, 60 min
[22] = 2nd exp (1-29-19), Bedaquiline 0.5 μM, frozen yeast mito, 60 min
[23] = 2nd exp (1-29-19), Bedaquiline 1 μM, frozen yeast mito, 60 min
[24] = 2nd exp (1-29-19), Bedaquiline 1.4 μM, frozen yeast mito, 60 min
[25] = 2nd exp (1-29-19), Bedaquiline 2 μM, frozen yeast mito, 60 min
[26] = 2nd exp (1-29-19), Bedaquiline 4 μM, frozen yeast mito, 60 min
[27] = 2nd exp (1-29-19), frozen yeast mito, 60 min
[28] = 3rd exp (2-1-19), Bedaquiline 0.005 μM, frozen yeast mito, 60 min
[29] = 3rd exp (2-1-19), Bedaquiline 0.05 μM, frozen yeast mito, 60 min
[30] = 3rd exp (2-1-19), Bedaquiline 0.1 μM, frozen yeast mito, 60 min
[31] = 3rd exp (2-1-19), Bedaquiline 0.5 μM, frozen yeast mito, 60 min
[32] = 3rd exp (2-1-19), Bedaquiline 1 μM, frozen yeast mito, 60 min
[33] = 3rd exp (2-1-19), Bedaquiline 1.4 μM, frozen yeast mito, 60 min
[34] = 3rd exp (2-1-19), Bedaquiline 2 μM, frozen yeast mito, 60 min
[35] = 3rd exp (2-1-19), Bedaquiline 4 μM, frozen yeast mito, 60 min
[36] = 3rd exp (2-1-19), frozen yeast mito, 60 min
[37] = right-hand regression, fits the SMP data

Compound: COc1nc2ccc(Br)cc2cc1[C@@H](c1ccccc1)[C@@](O)(CCN(C)C)c1cccc2ccccc12 [BDQ, Bedaquiline]
- effect on membrane potential, human mitoplasts [1]: partial effect
- risk of death [2]: 11.4%
- Cyanide sensitive ATP synthesis [3, 10]: 49.0688 nmol/min/mg
- activity at 0.05 µM [3, 10]: 106%
- inhibition at 0.05 µM [3, 10]: -6.06%
- Cyanide sensitive ATP synthesis [3, 11]: 39.561 nmol/min/mg
- activity at 0.1 µM [3, 11]: 85.5%
- inhibition at 0.1 µM [3, 11]: 14.5%
- Cyanide sensitive ATP synthesis [3, 12]: 35.6774 nmol/min/mg
- activity at 0.5 µM [3, 12]: 77.1%
- inhibition at 0.5 µM [3, 12]: 22.9%
- Cyanide sensitive ATP synthesis [3, 13]: 21.3622 nmol/min/mg
- activity at 1 µM [3, 13]: 46.2%
- inhibition at 1 µM [3, 13]: 53.8%
- Cyanide sensitive ATP synthesis [3, 14]: 15.4854 nmol/min/mg
- activity at 1.4 µM [3, 14]: 33.5%
- inhibition at 1.4 µM [3, 14]: 66.5%
- Cyanide sensitive ATP synthesis [3, 15]: 8.026 nmol/min/mg
- activity at 2 µM [3, 15]: 17.3%
- inhibition at 2 µM [3, 15]: 82.7%
- Cyanide sensitive ATP synthesis [3, 16]: 3.204 nmol/min/mg
- activity at 3 µM [3, 16]: 6.92%
- inhibition at 3 µM [3, 16]: 93.1%
- Cyanide sensitive ATP synthesis [3, 17]: 1.232 nmol/min/mg
- activity at 4 µM [3, 17]: 2.66%
- inhibition at 4 µM [3, 17]: 97.3%
- activity at 6 µM [3, 18]: 1.64%
- inhibition at 6 µM [3, 18]: 98.4%
- % activity [3, 19]: 96.7896%
- % inhibition [3, 19]: -3.9401% and 3.21%
- Cyanide sensitive ATP synthesis [3, 19]: 54.583 nmol/min/mg and 50.828 nmol/min/mg
- activity at 0.005 µM [3, 19]: 104%
- Cyanide sensitive ATP synthesis [3, 20]: 50.1533 nmol/min/mg
- activity at 0.05 µM [3, 20]: 95.5%
- inhibition at 0.05 µM [3, 20]: 4.5%
- Cyanide sensitive ATP synthesis [3, 21]: 50.0836 nmol/min/mg
- activity at 0.1 µM [3, 21]: 95.4%
- inhibition at 0.1 µM [3, 21]: 4.63%
- Cyanide sensitive ATP synthesis [3, 22]: 46.4023 nmol/min/mg
- activity at 0.5 µM [3, 22]: 88.4%
- inhibition at 0.5 µM [3, 22]: 11.6%
- Cyanide sensitive ATP synthesis [3, 23]: 33.1052 nmol/min/mg
- activity at 1 µM [3, 23]: 63%
- inhibition at 1 µM [3, 23]: 37%
- Cyanide sensitive ATP synthesis [3, 24]: 15.7394 nmol/min/mg
- activity at 1.4 µM [3, 24]: 30%
- inhibition at 1.4 µM [3, 24]: 70%
- Cyanide sensitive ATP synthesis [3, 25]: 6.265 nmol/min/mg
- activity at 2 µM [3, 25]: 11.9%
- inhibition at 2 µM [3, 25]: 88.1%
- activity at 4 µM [3, 26]: 1.16%
- inhibition at 4 µM [3, 26]: 98.8%
- activity at 6 µM [3, 27]: 0.645%
- inhibition at 6 µM [3, 27]: 99.4%
- Cyanide sensitive ATP synthesis [3, 28]: 55.7209 nmol/min/mg
- activity at 0.005 µM [3, 28]: 101%
- inhibition at 0.005 µM [3, 28]: -1.01%
- Cyanide sensitive ATP synthesis [3, 29]: 53.0953 nmol/min/mg
- activity at 0.05 µM [3, 29]: 96.2%
- inhibition at 0.05 µM [3, 29]: 3.75%
- Cyanide sensitive ATP synthesis [3, 30]: 53.6873 nmol/min/mg
- activity at 0.1 µM [3, 30]: 97.3%
- inhibition at 0.1 µM [3, 30]: 2.68%
- Cyanide sensitive ATP synthesis [3, 31]: 38.5022 nmol/min/mg
- activity at 0.5 µM [3, 31]: 69.8%
- inhibition at 0.5 µM [3, 31]: 30.2%
- Cyanide sensitive ATP synthesis [3, 32]: 33.4087 nmol/min/mg
- activity at 1 µM [3, 32]: 60.6%
- inhibition at 1 µM [3, 32]: 39.4%
- Cyanide sensitive ATP synthesis [3, 33]: 18.8899 nmol/min/mg
- activity at 1.4 µM [3, 33]: 34.2%
- inhibition at 1.4 µM [3, 33]: 65.8%
- Cyanide sensitive ATP synthesis [3, 34]: 16.8178 nmol/min/mg
- activity at 2 µM [3, 34]: 30.5%
- inhibition at 2 µM [3, 34]: 69.5%
- Cyanide sensitive ATP synthesis [3, 35]: 2.063 nmol/min/mg
- activity at 4 µM [3, 35]: 3.74%
- inhibition at 4 µM [3, 35]: 96.3%
- activity at 6 µM [3, 36]: 1.81%
- inhibition at 6 µM [3, 36]: 98.2%
- IC50 ([3]; IC50 ± SEM, ATP synthesis, yeast mitochondria): 1100 nM and ~1100 nM
- effect on the activity of luciferase [4]: did not affect
- IC50 [5]: 200000 nM
- IC50 [6]: ~1700 nM
- binding to F1 by cryo-EM density ([7]; F1Fo map 3.9 Å): not bound to F1
- binding site by cryo-EM density ([7]; Fo map 4.2 Å): at the interface between the a- and c-subunits
- IC50 [8]: ~1000 nM
- EC50 [9]: 1280 nM
- IC50 ([9]; IC50 ± SEM, ATP hydrolysis, yeast SMP): 1280 ± 250 nM
- ATP hydrolysis activity, Exp 1-3 ([9]; BDQ 0.0372 uM): 0.9086 and 0.8616 and 0.8497
- ATP hydrolysis activity, Exp 1-3 ([9]; BDQ 0.0744 uM): 0.9524 and 0.7514 and 0.8742
- ATP hydrolysis activity, Exp 1-3 ([9]; BDQ 0.3722 uM): 0.7241 and 0.758 and 0.7412
- ATP hydrolysis activity, Exp 1-3 ([9]; BDQ 0.7445 uM): 0.71 and 0.6674 and 0.5944
- ATP hydrolysis activity, Exp 1-3 ([9]; BDQ 1.489 uM): 0.489 and 0.4879 and 0.5368
- ATP hydrolysis activity, Exp 1-3 ([9]; BDQ 3.7225 uM): 0.2859 and 0.2741 and 0.3273
- ATP hydrolysis activity, Exp 1-3 ([9]; BDQ 7.4449 uM): 0.2679 and 0.4735 and 0.3345
- ATP hydrolysis activity, Exp 1-3 ([9]; BDQ 18.6123 uM): 0.1786 and 0.215 and 0.285
- ATP hydrolysis activity, Exp 1-3 ([9]; BDQ 37.2245 uM): 0.1804 and 0.145 and 0.1981
- Hillslope, four parameter logistic fit, second regression [9, 37]: -1.0668
- max, four parameter logistic fit, second regression [9, 37]: 0.8923
- min, four parameter logistic fit, second regression [9, 37]: 0.1853
